From US20250100996A1, “HETEROCYCLOALKYL AND HETEROARYL COMPOUNDS AND PHARMACEUTICAL COMPOSITIONS THAT MODULATE IKZF2” (Plexium, Inc., priority 2021, published 2025)

Tests used:
Type in all cases: cell-based
IKZF1 (Ikaros) = target: T1, IKZF1 (Ikaros) (Homo sapiens, UniProt Q13422); test: IKZF1 reporter degradation assay (HEK 293T IKZF1-mNeonGreen reporter cell line); conditions: HEK 293T IKZF1 reporter cells, 24 hours incubation
T1 construct: mScarlet (behind P2A) (C, cleaved yes); expressed in transfected cells
Text: Polycistronic plasmids were constructed for the mammalian expression of fluorescent reporter fusions of human transcription factors IKZF1 (Ikaros), IKZF2 (Helios), and IKZF3 (Aiolos). The respective protein sequences had their C-terminal end joined to a GGGGS linker repeated three times followed by mNeonGreen, P2A sequence, and mScarlet. The DNA sequences of the open reading frames are as follows:
IKZF1, IKZF2, and IKZF3 constructs were cloned into the UCOE Hygromycin expression vectors (Millipore Sigma). Reporter constructs were transfected using cationic lipid reagents into adherent HEK 293T cells and stable integrants were selected by treatment with 200 μg/mL hygromycin B. Clonal populations were obtained from the population of stable integrants either by limiting dilution or fluorescence activated cell sorting.
The clonal stable cell lines were maintained under constant 200 μg/mL hygromycin B selection while being passaged for use in the degradation assays. […] The fluorescence intensity of the IKZF1/2/3-mNeonGreen (FITC channel) and mScarlet (PE channel) reporters were routinely analyzed by flow cytometry to confirm consistent expression levels between experiments.
The IKZF1/IKZF2/IKZF3 degradation assays were carried out by harvesting the HEK 293T reporter cell lines and resuspending the cells in media formulated for reduced background fluorescence (FluoroBrite; Thermo Fisher). The respective cell lines were seeded at a density of 4000 cells/well into black-walled 384-well optical grade assay tissue culture plates. The cells were incubated overnight at 37° C. to allow for attachment to the assay plate. Dilutions of the compounds were prepared in DMSO from 10 mM compound stocks. The assay plates were treated with appropriate concentrations of the compounds by dispensing the DMSO dilutions in quadruplicate wells with an upper limit of 0.5% final DMSO.
After 24 hours incubation with the compounds, the assay plates were imaged on an ImageXpress Pico microscopy system (cells maintained at 37° C. during imaging) to obtain the fluorescent readouts. The assay plates were imaged in the FITC and Tetramethylrhodamine (TRITC) channels to obtain the mNeonGreen fluorescence intensity (reporter degradation data) and mScarlet fluorescence intensity (for cell segmentation). 293T-IKZF1 and 293T-IKZF3 reporter cell lines were imaged with exposures of 500 milliseconds (ms) for both FITC and TRITC channels, while the 293T-IKZF2 reporter cell line was imaged with exposures of 1000 ms for FITC and 1250 ms for TRITC. The resulting data was analyzed with Cell Reporter Xpress software using the 2-channel cell scoring analysis with a “percent positive” readout. The TRITC channel was selected for the “nuclei” segmentation with a threshold of 20 while the FITC channel was selected for the “Marker 1” segmentation and a threshold of 100 for the IKZF1 and IKZF3 reporter lines. […] The minimum segmentation width was set to 6 micrometers and the maximum segmentation width was set to 15 micrometers for all cell lines. The DC50 calculations were determined by regression to best fit four-parameter logistic curves using GraphPad Prism.

IKZF2 (Helios) [1] = target: T2, IKZF2 (Helios) (Homo sapiens, UniProt Q96SW2+Q9UKS7); test: IKZF2 reporter degradation assay (HEK 293T IKZF2-mNeonGreen reporter cell line); conditions: HEK-293T, 24 h, 1 μM compound, HEK 293T IKZF2 reporter cells, 24 hours incubation
T2 construct: Leu-Asp junction (codons ctcgac before the linker); mScarlet (behind P2A) (C, cleaved yes); expressed in transfected cells
In short: (§1)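 Cells were seeded overnight and then dosed with DMSO dilutions of compound. After 24 h, the plates were imaged live in the FITC and TRITC channels. The fraction of reporter-positive cells was plotted and fitted to a four-parameter logistic curve to give DC50.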

IKZF2 (Helios) [2] = target: T3, IKZF2 (Helios) (Homo sapiens, UniProt Q9UKS7); test: as above; conditions: HEK 293T IKZF2 reporter cells, 24 hours incubation
T3 construct: Leu-Asp junction (codons ctcgac before the linker); mScarlet (behind P2A) (C, cleaved yes); expressed in transfected cells
In short: as §1

IKZF3 (Aiolos) = target: T4, IKZF3 (Aiolos) (Homo sapiens, UniProt Q9UKT9); test: IKZF3 reporter degradation assay (HEK 293T IKZF3-mNeonGreen reporter cell line); conditions: HEK 293T IKZF3 reporter cells, 24 hours incubation
T4 construct: Leu-Asp junction (codons ctcgac before the linker); mScarlet (behind P2A) (C, cleaved yes); expressed in transfected cells
In short: as §1

T4 sequence (Q96SW2 whole entry partner): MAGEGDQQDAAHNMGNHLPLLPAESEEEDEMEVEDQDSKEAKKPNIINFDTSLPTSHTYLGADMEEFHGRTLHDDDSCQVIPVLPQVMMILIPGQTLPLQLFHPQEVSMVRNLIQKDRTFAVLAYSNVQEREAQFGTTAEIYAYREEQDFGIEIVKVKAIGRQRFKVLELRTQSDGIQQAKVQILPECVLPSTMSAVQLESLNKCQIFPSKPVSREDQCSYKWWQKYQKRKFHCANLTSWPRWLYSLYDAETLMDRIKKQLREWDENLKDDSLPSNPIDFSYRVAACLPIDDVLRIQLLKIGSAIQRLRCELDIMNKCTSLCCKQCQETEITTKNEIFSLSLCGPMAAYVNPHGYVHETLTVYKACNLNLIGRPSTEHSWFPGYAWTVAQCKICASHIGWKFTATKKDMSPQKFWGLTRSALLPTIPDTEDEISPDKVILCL
T4 sequence (Q16531 whole entry partner): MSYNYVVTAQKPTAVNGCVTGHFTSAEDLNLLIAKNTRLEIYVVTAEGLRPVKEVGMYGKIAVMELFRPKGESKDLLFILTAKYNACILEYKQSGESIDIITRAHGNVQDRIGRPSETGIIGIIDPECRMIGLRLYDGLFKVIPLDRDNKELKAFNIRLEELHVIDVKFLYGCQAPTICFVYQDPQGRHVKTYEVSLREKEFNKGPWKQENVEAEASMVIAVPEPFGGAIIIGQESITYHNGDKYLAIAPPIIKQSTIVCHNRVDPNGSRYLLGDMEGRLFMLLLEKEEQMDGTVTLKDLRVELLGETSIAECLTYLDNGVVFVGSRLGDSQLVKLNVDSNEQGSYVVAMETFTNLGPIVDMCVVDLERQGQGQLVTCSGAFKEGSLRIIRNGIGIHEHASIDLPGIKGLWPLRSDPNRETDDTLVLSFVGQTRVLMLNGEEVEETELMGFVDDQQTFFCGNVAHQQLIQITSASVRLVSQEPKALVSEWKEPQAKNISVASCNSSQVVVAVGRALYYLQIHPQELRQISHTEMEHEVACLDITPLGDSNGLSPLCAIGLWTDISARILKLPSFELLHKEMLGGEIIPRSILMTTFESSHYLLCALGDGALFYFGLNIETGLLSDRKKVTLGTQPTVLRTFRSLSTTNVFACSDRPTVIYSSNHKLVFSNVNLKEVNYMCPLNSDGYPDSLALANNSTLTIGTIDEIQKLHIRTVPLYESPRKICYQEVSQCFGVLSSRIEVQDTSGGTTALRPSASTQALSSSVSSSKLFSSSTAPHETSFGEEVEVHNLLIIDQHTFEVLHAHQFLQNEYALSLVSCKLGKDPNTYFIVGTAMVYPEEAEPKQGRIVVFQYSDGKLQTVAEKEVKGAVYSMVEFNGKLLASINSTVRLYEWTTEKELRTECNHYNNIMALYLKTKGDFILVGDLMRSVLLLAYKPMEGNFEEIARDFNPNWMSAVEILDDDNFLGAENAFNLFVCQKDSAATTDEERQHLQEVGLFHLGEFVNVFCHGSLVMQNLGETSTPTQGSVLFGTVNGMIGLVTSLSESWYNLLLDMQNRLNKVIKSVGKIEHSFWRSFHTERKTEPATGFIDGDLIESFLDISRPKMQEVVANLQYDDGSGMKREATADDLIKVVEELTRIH
T4 sequence (Q9UKT9 whole entry): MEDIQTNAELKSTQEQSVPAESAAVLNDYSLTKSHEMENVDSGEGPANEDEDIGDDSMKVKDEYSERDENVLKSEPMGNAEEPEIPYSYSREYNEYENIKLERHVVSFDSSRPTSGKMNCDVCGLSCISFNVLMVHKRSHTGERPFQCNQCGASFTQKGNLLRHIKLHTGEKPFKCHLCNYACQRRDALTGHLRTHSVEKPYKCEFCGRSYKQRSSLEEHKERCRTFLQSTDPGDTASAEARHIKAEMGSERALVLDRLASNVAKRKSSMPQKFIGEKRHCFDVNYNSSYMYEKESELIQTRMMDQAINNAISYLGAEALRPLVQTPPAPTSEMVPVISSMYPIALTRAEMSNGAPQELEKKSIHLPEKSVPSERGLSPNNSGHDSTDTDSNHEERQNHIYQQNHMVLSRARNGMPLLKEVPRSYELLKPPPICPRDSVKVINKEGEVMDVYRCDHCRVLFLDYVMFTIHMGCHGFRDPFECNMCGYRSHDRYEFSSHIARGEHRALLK
T1 sequence (Q96SW2 whole entry partner): as the sequence (Q96SW2 whole entry partner) above
T1 sequence (Q16531 whole entry partner): as the sequence (Q16531 whole entry partner) above
T1 sequence (Q13422 whole entry): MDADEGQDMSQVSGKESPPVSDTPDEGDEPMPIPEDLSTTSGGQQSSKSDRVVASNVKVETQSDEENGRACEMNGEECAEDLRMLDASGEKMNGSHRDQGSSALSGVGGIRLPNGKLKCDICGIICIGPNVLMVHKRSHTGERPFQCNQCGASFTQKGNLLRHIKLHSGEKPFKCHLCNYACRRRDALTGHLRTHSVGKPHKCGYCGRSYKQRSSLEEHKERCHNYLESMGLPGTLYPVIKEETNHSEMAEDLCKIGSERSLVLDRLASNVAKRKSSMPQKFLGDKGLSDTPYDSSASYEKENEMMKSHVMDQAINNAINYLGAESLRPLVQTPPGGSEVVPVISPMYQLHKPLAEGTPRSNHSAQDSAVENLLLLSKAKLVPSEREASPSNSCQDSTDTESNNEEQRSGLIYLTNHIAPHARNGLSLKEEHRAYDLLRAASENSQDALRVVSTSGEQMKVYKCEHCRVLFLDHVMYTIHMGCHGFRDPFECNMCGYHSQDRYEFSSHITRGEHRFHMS
T3 sequence (Q9UKS7 whole entry): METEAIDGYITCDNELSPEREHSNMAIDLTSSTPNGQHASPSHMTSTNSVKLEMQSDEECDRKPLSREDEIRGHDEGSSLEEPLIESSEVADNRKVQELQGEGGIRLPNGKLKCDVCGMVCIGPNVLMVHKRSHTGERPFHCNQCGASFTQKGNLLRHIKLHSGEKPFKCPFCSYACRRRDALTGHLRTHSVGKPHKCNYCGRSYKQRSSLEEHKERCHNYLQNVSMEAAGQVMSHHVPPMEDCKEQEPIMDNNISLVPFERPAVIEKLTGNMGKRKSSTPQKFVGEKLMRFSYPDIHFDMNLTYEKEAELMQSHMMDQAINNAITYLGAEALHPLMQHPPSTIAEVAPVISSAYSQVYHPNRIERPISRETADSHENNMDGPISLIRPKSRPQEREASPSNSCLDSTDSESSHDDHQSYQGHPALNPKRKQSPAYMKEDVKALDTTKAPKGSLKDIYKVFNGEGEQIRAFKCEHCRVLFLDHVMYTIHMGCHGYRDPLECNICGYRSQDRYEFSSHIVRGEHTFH
T3 sequence (Q96SW2 whole entry, further chain): as the sequence (Q96SW2 whole entry partner) above
T3 sequence (Q16531 whole entry partner): as the sequence (Q16531 whole entry partner) above
T2 sequence (Q9UKS7 whole entry): as the sequence (Q9UKS7 whole entry) above
T2 sequence (Q96SW2 whole entry): as the sequence (Q96SW2 whole entry partner) above
T2 sequence (Q16531 whole entry partner): as the sequence (Q16531 whole entry partner) above

SMILES	DC50 (IKZF1 (Ikaros)) [µM]	inhibition at 1 µM (IKZF2 (Helios) [1]) [%]	DC50 (IKZF2 (Helios) [2]) [µM]	DC50 (IKZF3 (Aiolos)) [µM]
O=C1CCC(N2Cc3cc(O[C@H]4CCCC[C@@H]4N4CC(C5CCOCC5)C4)ccc3C2=O)C(=O)N1 (stereo partly drawn) [Compound 1-A, 3-(1-oxo-5-(((1S,2S)-2-(3-(tetrahydro-2H-pyran-4-yl)azetidin-1-yl)cyclohexyl)oxy)isoindolin-2-yl)piperidine-2,6-dione]	> 30	83.4	0.00889	> 30
O=C1CCC(N2Cc3cc(OC4CCCCC4N4CC(c5ccnc(C(F)(F)F)c5)C4)ccc3C2=O)C(=O)N1 (stereo not drawn) [Compound 1-B, 3-(1-oxo-5-((2-(3-(2-(trifluoromethyl)pyridin-4-yl)azetidin-1-yl)cyclohexyl)oxy)isoindolin-2-yl)piperidine-2,6-dione]	> 30	32.1	0.525	> 30
O=C1CCC(N2Cc3cc(OC4CCCCC4N4CC(c5cnccn5)C4)ccc3C2=O)C(=O)N1 (stereo not drawn) [Compound 2-B, 3-(1-oxo-5-((2-(3-(pyrazin-2-yl)azetidin-1-yl)cyclohexyl)oxy)isoindolin-2-yl)piperidine-2,6-dione]	> 30	63.1	0.12	> 30
O=C1CCC(N2Cc3cc(OC4CCCCC4N4CC(c5ncc(F)cn5)C4)ccc3C2=O)C(=O)N1 (stereo not drawn) [Compound 6-B, 3-(5-((2-(3-(5-fluoropyrimidin-2-yl)azetidin-1-yl)cyclohexyl)-oxy)-1-oxoisoindolin-2-yl)piperidine-2,6-dione]	> 30	74.9	0.0299	> 30
COc1cc(C2CN(C3CCCCC3Oc3ccc4c(c3)CN(C3CCC(=O)NC3=O)C4=O)C2)ccn1 (stereo not drawn) [Compound 11-B, 3-(5-((2-(3-(2-methoxypyridin-4-yl)azetidin-1-yl)cyclohexyl)oxy)-1-oxoisoindolin-2-yl)piperidine-2,6-dione]	> 30	78.2	0.0207	> 30
COc1ccc(C2CN(C3CCCCC3Oc3ccc4c(c3)CN(C3CCC(=O)NC3=O)C4=O)C2)cn1 (stereo not drawn) [Compound 16-B, 3-(5-((2-(3-(6-methoxypyridin-3-yl)azetidin-1-yl)cyclohexyl)oxy)-1-oxoisoindolin-2-yl)piperidine-2,6-dione]	> 30	80.6	0.0226	> 30
O=C1CCC(N2Cc3cc(OC4CCCCC4N4CC(c5ncc(Cl)cn5)C4)ccc3C2=O)C(=O)N1 (stereo not drawn) [Compound 26-B, 3-(5-((2-(3-(5-chloropyrimidin-2-yl)azetidin-1-yl)cyclohexyl)oxy)-1-oxoisoindolin-2-yl)piperidine-2,6-dione]	> 30	78.4	0.525	> 30
COc1ncc(C2CN(C3CCCCC3Oc3ccc4c(c3)CN(C3CCC(=O)NC3=O)C4=O)C2)cn1 (stereo not drawn) [Compound 76-B, 3-(5-((2-(3-(2-methoxypyrimidin-5-yl)azetidin-1-yl)cyclohexyl)oxy)-1-oxoisoindolin-2-yl)piperidine-2,6-dione]	> 30	84.6	0.0286	> 30
O=C1CCC(N2Cc3cc(O[C@H]4CCCC[C@@H]4N4CC(n5cccn5)C4)ccc3C2=O)C(=O)N1 (stereo partly drawn) [Compound 81-B, 3-(5-(((1S,2S)-2-(3-(1H-pyrazol-1-yl)azetidin-1-yl)cyclohexyl)oxy)-1-oxoisoindolin-2-yl)piperidine-2,6-dione]	> 30	78	0.0965	> 30

Results, then the molecule that gave them:

DC50 (IKZF1 (Ikaros)) [µM]	inhibition at 1 µM (IKZF2 (Helios) [1]) [%]	DC50 (IKZF2 (Helios) [2]) [µM]	DC50 (IKZF3 (Aiolos)) [µM]	SMILES
> 30	72.5	0.0382	> 30	O=C1CCC(N2Cc3cc(OC4CCCCC4N4CC(c5cnc6ccccc6n5)C4)ccc3C2=O)C(=O)N1 (stereo not drawn) [Compound 21-B, 3-(1-oxo-5-((2-(3-(quinoxalin-2-yl)azetidin-1-yl)cyclohexyl)oxy)isoindolin-2-yl)piperidine-2,6-dione]
> 30	74	0.0478	> 30	O=C1CCC(N2Cc3cc(OC4CCCCC4N4CC(c5ccncc5)C4)ccc3C2=O)C(=O)N1 (stereo not drawn) [Compound 31-B, 3-(1-oxo-5-((2-(3-(pyridin-4-yl)azetidin-1-yl)cyclohexyl)oxy)isoindolin-2-yl)piperidine-2,6-dione]
> 30	49.9	0.188	> 30	O=C1CCC(N2Cc3cc(OC4CCCCC4N4CC(c5cccnc5)C4)ccc3C2=O)C(=O)N1 (stereo not drawn) [Compound 36-B, 3-(1-oxo-5-((2-(3-(pyridin-3-yl)azetidin-1-yl)cyclohexyl)oxy)isoindolin-2-yl)piperidine-2,6-dione]
> 30	39	0.232	> 30	O=C1CCC(N2Cc3cc(OC4CCCCC4N4CC(c5ncccn5)C4)ccc3C2=O)C(=O)N1 (stereo not drawn) [Compound 46-B, 3-(1-oxo-5-((2-(3-(pyrimidin-2-yl)azetidin-1-yl)cyclohexyl)oxy)isoindolin-2-yl)piperidine-2,6-dione]
> 30	24	0.321	> 30	O=C1CCC(N2Cc3cc(OC4CCCCC4N4CC(c5ccccn5)C4)ccc3C2=O)C(=O)N1 (stereo not drawn) [Compound 51-B, 3-(1-oxo-5-((2-(3-(pyridin-2-yl)azetidin-1-yl)cyclohexyl)oxy)isoindolin-2-yl)piperidine-2,6-dione]
> 30	84.8	0.0111	> 30	Cc1cc(C2CN(C3CCCCC3Oc3ccc4c(c3)CN(C3CCC(=O)NC3=O)C4=O)C2)ccn1 (stereo not drawn) [Compound 56-B, 3-(5-((2-(3-(2-methylpyridin-4-yl)azetidin-1-yl)cyclohexyl)oxy)-1-oxoisoindolin-2-yl)piperidine-2,6-dione]
> 30	55.8	0.026	> 30	O=C1CCC(N2Cc3cc(OC4CCCCC4N4CC(c5c[nH]c6ccccc56)C4)ccc3C2=O)C(=O)N1 (stereo not drawn) [Compound 61-B, 3-(5-((2-(3-(1H-indol-3-yl)azetidin-1-yl)cyclohexyl)oxy)-1-oxoisoindolin-2-yl)piperidine-2,6-dione]
> 30	86.4	0.0132	> 30	O=C1CCC(N2Cc3cc(OC4CCCCC4N4CC(c5ccnc6ccccc56)C4)ccc3C2=O)C(=O)N1 (stereo not drawn) [Compound 66-B, 3-(1-oxo-5-((2-(3-(quinolin-4-yl)azetidin-1-yl)cyclohexyl)oxy)isoindolin-2-yl)piperidine-2,6-dione]
> 30	79.3	0.0283	> 30	O=C1CCC(N2Cc3cc(OC4CCCCC4N4CC(c5cccc6[nH]ncc56)C4)ccc3C2=O)C(=O)N1 (stereo not drawn) [Compound 71-B, 3-(5-((2-(3-(1H-indazol-4-yl)azetidin-1-yl)cyclohexyl)oxy)-1-oxoisoindolin-2-yl)piperidine-2,6-dione]
